Measured values taken from patent publication US20030152523A1, “Pharmaceutical composition for pulmonary delivery” (priority 2000, published 2003).

Tests used:
[1] = Particle size analysis by laser diffraction (Malvern 2600); type: physicochemical; conditions: BDP dispersed in 1% (w/v) span 85 in cyclohexane
Procedure: 3 Particle Size Analysis:
The particle size of both micronised BDP and spray dried BDP was determined in a liquid medium by laser diffraction, according to an independent model, using a Malvern 2600 laser diffraction sizer (Malvern Instruments, Malvern, Worcs, UK). BDP was measured using a 63 mm lens, after dispersion in a solution of 1% (w/v) span 85 in cyclohexane, saturated with the drug. Each sample was measured in triplicate.

[2] = In-vitro deposition of BDP from dry powder formulations aerosolised via Rotahaler into a twin stage impinger (TSI); type: physicochemical; conditions: TSI at 60 L/min, drug in lower stage of TSI
Excerpt: It was the aim of the current study to attempt to reduce the hydrophobic interaction that exists between BDP particles. Such interaction induces aggregate formation and potentially limits the fine particle dose available for pulmonary delivery. The objectives were to adsorb hydrophilic polymer to individual drug particles and to prepare a model dry powder formulation containing modified drug and lactose. A suspension of 1% w/v BDP in water containing either 0.05% or 0.1% PVA ((MWt 9-10 kDA) was spray dried to produce particles (volume mean diameter (VMD) 4.2 μm as determined by an Aerosizer time of flight particle sizing apparatus obtained from Amherst Process Instruments, Hadley, Mass., USA) suitable for intended delivery to the lung. The micronised drug (VMD […]) or spray dried drug was blended with lactose in a ratio 1:67.5 parts by weight and the resultant formulations filled into gelatin capsules for arosolisation via a Rotahaler device to a twin stage impinger (TSI) operated at 60 L min^−1. The Fine Particle Dose (FPD) (as determined from by the amount of drug reaching the lower stage of the TSI) was increased from 20.2 μg when micronised drug was employed to 46.7 μg when the lower PVA concentration was employed. […] The concentration of BDP was determined from calibration curves constructed using the standard solutions of BDP. […]

## CCC(=O)OCC(=O)[C@@]1(OC(=O)CC)[C@@H](C)C[C@H]2[C@@H]3CCC4=CC(=O)C=C[C@]4(C)[C@@]3(Cl)[C@@H](O)C[C@@]21C [micronised BDP, beclomethasone dipropionate]
[1]
  Volume mean diameter VMD(GSD): 5.18 (1.00) μm
[2]
  Fine particle dose (FPD) of BDP: 20.2 µg
